Where a name gives a salt, the structure may show the parent alone. Read-outs that look alike come from different tables or passages of the source.
What was measured:
[1] = biological target: Human Thrombocytes; experiment: Fibrinogen binding to human thrombocytes (fibrinogen binding test)
Protocol: 1. Fibrinogen Binding to Human Thrombocytes The blood obtained by puncturing an antecubital vein is anticoagulated with trisodium citrate (final concentration: 13 mM) and centrifuged for 10 minutes at 170× g. The supernatant platelet-rich plasma is poured onto a Sepharose 2B column (Pharmacia) and eluted with a solution of 90 mM common salt, 14 mM trisodium citrate, 5 mM glucose and 50 mM tris(hydroxymethyl)aminomethane, adjusted to pH 7.4. The gel-filtered platelets (GFP) appearing before the plasma proteins are used for the binding experiments. 50 μl of a 60 mM calcium chloride solution, 50 μl of a 0.6 mM adenosine diphosphate solution, 100 μl of substance solution or solvent and 50 μl of fibrinogen solution (containing 3 μg of ^125 fibrinogen) are added to 750 μl of GFP and incubated for 20 minutes at ambient temperature. The non-specific binding is determined in the presence of 3 mg/ml of cold fibrinogen. 900 μl of the incubated material are carefully pipetted onto 250 μl of silicon oil (AP 38: AR 20, 1:2 v/v, Wacker Chemie) in Eppendorf tubes and centrifuged for 2 minutes at 10,000× g. The aqueous supernatant and some of the oil are drawn off, the tips of the tubes are cut off together with the platelet pellet and the quantity of bound fibrinogen is determined in a gamma counter. The concentration of substance which brings about a 50% inhibition in fibrinogen binding is determined from a series of concentrations and is given as the IC50 value. | *^125 I fibrogen was replaced by […] |e.

[2] = test system: platelet aggregation (platelet-rich plasma); experiment: Antithrombotic activity: inhibition of collagen-induced platelet aggregation in platelet-rich plasma (Born and Cross); format: cell-based, human (healthy volunteers); details: 50% change in optical density, human platelet-rich plasma, 10 min preincubation
Protocol: 2. Antithrombotic Activity Method The thrombocyte aggregation is measured using the Born and Cross method (J. Physiol. 170:397 (1964)) in platelet-rich plasma taken from healthy volunteers. To inhibit coagulation the blood is mixed with 3.14% sodium citrate in a ratio by volume of 1:10. Collagen-induced aggregation The pattern of the decrease in optical density of the platelet suspension is photometrically measured and recorded after the addition of aggregation-triggering substance. The rate of aggregation is concluded from the angle of inclination of the density curve. The point on the curve where there is maximum light transmittance is used to calculate the optical density. The amount of collagen used is as small as possible but sufficient to produce an irreversible reaction curve. Standard commercial collagen produced by Hormonchemie of Munich is used. Before the addition of the collagen the plasma is incubated for 10 minutes with the substance at […]. From the measurements obtained an EC50 is determined graphically, indicating a 50% change in the optical density in terms of the inhibition of aggregation.

[3] = 125I fibrinogen, 50% inhibition of fibrinogen binding, gel-filtered human platelets, ADP, 20 min ambient temperature, read-out: Fibrinogen binding test IC50
[4] = *: 125I fibrinogen replaced by 3H-(3S,5S)-5-[(amidino-biphenylyl)-oxymethyl]-carboxymethyl-pyrrolidinone ligand, read-out: Fibrinogen binding test IC50 (values marked *)

Row | IC50 [1, 3] | EC50 [2] | IC50 [1, 4] | Structure (SMILES)
1 | – | 3300 nM | 720 nM | N=C(N)c1ccc(-c2nc3cc(C(=O)NCCC(=O)O)ccc3[nH]2)cc1 [1(2), 2-(4-amidino-phenyl)-5(6)-[(2-carboxy-ethyl)-aminocarbonyl]-benzimidazole-hydrochloride]
2 | – | 160 nM | 49 nM | N=C(N)c1ccc(-c2nc3cc(C(=O)NCCC(=O)O)ccc3n2CCCN2CCSCC2)cc1 [1(73), 2-(4-amidino-phenyl)-5-[(2-carboxy-ethyl)-aminocarbonyl]-1-(3-thiomorpholino-propyl)-benzimidazole]
3 | 800 nM | 7600 nM | – | N=C(N)c1ccc(OCc2nc3cc(OCC(=O)O)ccc3[nH]2)cc1 [1(135), 2-[(4-amidino-phenyl)-oxymethyl]-5(6)-carboxymethoxy-benzimidazole]
4 | – | 7000 nM | 1800 nM | NCc1ccc(-c2nc3cc(C(=O)NCCC(=O)O)ccc3n2CCCN2CCSCC2)cc1 [1(137), 2-(4-aminomethyl-phenyl)-5-[(2-carboxy-ethyl)-aminocarbonyl]-1-(3-thiomorpholino-propyl)-benzimidazole]
5 | – | 3600 nM | 1500 nM | N=C(N)c1ccc(-c2nc3cc(C(=O)NCCC(=O)O)ccc3n2CCCC(=O)O)cc1 [1(138), 2-(4-amidino-phenyl)-5-[(2-carboxy-ethyl)-aminocarbonyl]-1-(3-carboxy-propyl)-benzimidazole]
6 | – | 6400 nM | 7000 nM | COC(=O)CCNC(=O)c1ccc2c(c1)nc(-c1ccc(C(=N)N)cc1)n2Cc1ccccc1 [3(48), 2-(4-amidino-phenyl)-1-benzyl-5-[(2-methoxycarbonyl-ethyl)-aminocarbonyl]-benzimidazole-hydrochloride]
7 | – | 2800 nM | 17000 nM | COC(=O)CCNC(=O)c1cc2nc(-c3ccc(C(=N)N)cc3)n(C)c2cc1N(C)CC(=O)OC [3(124), 2-(4-amidino-phenyl)-5-[(2-methoxycarbonyl-ethyl)-aminocarbonyl]-6-(N-methoxycarbonylmethyl-methylamino)-1-methyl-benzimidazole-hydrochloride]
8 | 2000 nM | 250 nM | – | COC(=O)CCNC(=O)c1ccc2c(c1)nc(-c1ccc(C(=N)N)cc1)n2CCc1cc(Br)c(N)c(Br)c1 [3(125), 2-(4-amidino-phenyl)-1-[2-(4-amino-3f5-dibromo-phenyl)-ethyl]-5-[(2-methoxycarbonyl-ethyl)-aminocarbonyl]-benzimidazole]

Second part, the compound before the results:

Row | Structure (SMILES) | IC50 [1, 3] | EC50 [2] | IC50 [1, 4]
9 | N=C(N)c1ccc(-c2nc3cc(NC(=O)CCC(=O)O)ccc3[nH]2)cc1 [1(1), 2-(4-amidino-phenyl)-5(6)-[(2-carboxy-ethyl)-carbonyl-amino]-benzimidazole] | 600 nM | 6600 nM | –
10 | N=C(N)c1ccc(-c2nc3cc(C(=O)NCCC(=O)O)ccc3n2Cc2ccccc2)cc1 [1(62), 2-(4-amidino-phenyl)-1-benzyl-5-[(2-carboxy-ethyl)-aminocarbonyl]-benzimidazole-hydrochloride] | – | – | 38 nM
11 | N=C(N)c1ccc(-c2nc3cc(C(=O)NCCC(=O)O)ccc3n2CCCN2CC[S+]([O-])CC2)cc1 [1(74), 2-(4-amidino-phenyl)-5-[(2-carboxy-ethyl)-aminocarbonyl]-1-[3-(S-oxido-thiomorpholino)-propyl]-benzimidazole] | – | 310 nM | 120 nM
12 | N=C(N)c1ccc(-c2nc3cc(C(=O)NCCC(=O)O)ccc3n2CCCN2CCS(=O)(=O)CC2)cc1 [1(75), 2-(4-amidino-phenyl)-5-[(2-carboxy-ethyl)-aminocarbonyl]-1-[3-(S,S-dioxido-thiomorpholino)-propyl]-benzimidazole] | – | 1100 nM | 230 nM
13 | N=C(N)c1ccc(-c2nc3cc(C(=O)NCCC(=O)O)ccc3n2CCCN)cc1 [1(76), 2-(4-amidino-phenyl)-1-(3-amino-propyl)-5-[(2-carboxy-ethyl)-aminocarbonyl]-benzimidazole-diacetate] | – | 1150 nM | –
14 | Cn1c(-c2ccc(C(=N)N)cc2)[n+]([O-])c2cc(C(=O)NCCC(=O)O)ccc21 [1(79), 2-(4-amidino-phenyl)-5-[(2-carboxy-ethyl)-aminocarbonyl]-1-methyl-benzimidazole-3-oxide] | 41 nM | 80 nM | –
15 | N=C(N)c1ccc(-c2nc3cc(C(=O)NCCC(=O)O)ccc3n2CCN2CCN(Cc3ccccc3)CC2)cc1 [1(136), 2-(4-amidino-phenyl)-1-[2-(4-benzyl-piperazino)-ethyl]-5-[(2-carboxy-ethyl)-aminocarbonyl]-benzimidazole] | 30 nM | 80 nM | –
16 | CNc1cc2c(cc1C(=O)NCCC(=O)O)nc(-c1ccc(C(=N)N)cc1)n2C [1(139), 2-(4-amidino-phenyl)-5-[(2-carboxy-ethyl)-aminocarbonyl]-1-methyl-6-methylamino-benzimidazole] | – | 1500 nM | 410 nM
17 | CN(CC(=O)O)c1cc2c(cc1C(=O)NCCC(=O)O)nc(-c1ccc(C(=N)N)cc1)n2C [1(140), 2-(4-amidino-phenyl)-5-[(2-carboxy-ethyl)-aminocarbonyl]-6-(N-carboxymethyl-methylamino)-1-methyl-benzimidazole] | – | 750 nM | 220 nM
18 | Cn1c(-c2ccc(C(=N)N)cc2)nc2c(=O)n(CCCCC(=O)O)c(=O)n(C)c21 [1(160), 8-(4-amidino-phenyl)-1-(4-carboxy-butyl)-3,9-dimethyl-xanthine] | – | 70 nM | 7.5 nM
19 | COC(=O)CCNC(=O)c1cnc2c(c1)nc(-c1ccc(C(=N)N)cc1)n2C [3(19), 2-(4-amidino-phenyl)-6-[(2-methoxycarbonyl-ethyl)-aminocarbonyl]-3-methyl-imidazo[4,5-b]pyridine] | – | 330 nM | 280 nM
20 | COC(=O)CCNC(=O)c1ccc2c(c1)nc(-c1ccc(C(=N)N)cc1)n2Cc1cccnc1 [3(52), 2-(4-amidino-phenyl)-5-[(2-methoxycarbonyl-ethyl)-aminocarbonyl]-1-(3-pyridylmethyl)-benzimidazole] | – | 9500 nM | 4800 nM
21 | COC(=O)CCNC(=O)c1ccc2c(c1)nc(-c1ccc(C(=N)N)cc1)n2CCCN1CCSCC1 [3(59), 2-(4-amidino-phenyl)-5-[(2-methoxycarbonyl-ethyl)-aminocarbonyl]-1-(3-thiomorpholino-propyl)-benzimidazole] | – | 3800 nM | 2000 nM
22 | CCCCCCCCCCCCCCn1c(-c2ccc(C(=N)N)cc2)nc2cc(C(=O)NCCC(=O)OC)ccc21 [3(119), 2-(4-amidino-phenyl)-5-[(2-methoxycarbonyl-ethyl)-aminocarbonyl]-1-n-tetradecyl-benzimidazole] | – | 39000 nM | 4600 nM
23 | COC(=O)CCCn1c(-c2ccc(C(=N)N)cc2)nc2cc(C(=O)NCCC(=O)OC)ccc21 [3(120), 2-(4-amidino-phenyl)-5-[(2-methoxycarbonyl-ethyl)-aminocarbonyl]-1-(3-methoxycarbonyl-propyl)-benzimidazole-hydrochloride] | – | 2000 nM | 1300 nM
24 | COC(=O)CCNC(=O)c1ccc2c(c1)nc(-c1ccc(C(=N)N)cc1)n2CCCC(=O)O [3(121), 2-(4-amidino-phenyl)-1-(3-carboxy-propyl)-5-[(2-methoxycarbonyl-ethyl)-aminocarbonyl]-benzimidazole] | – | 13000 nM | 15000 nM
25 | COC(=O)CCNC(=O)c1ccc2c(c1)nc(-c1ccc(C(=N)N)cc1)n2CCCCc1ccccc1 [3(122), 2-(4-amidino-phenyl)-5-[(2-methoxycarbonyl-ethyl)-aminocarbonyl]-1-(4-phenyl-butyl)-benzimidazole] | – | 8600 nM | 4000 nM
26 | CNc1cc2c(cc1C(=O)NCCC(=O)OC)nc(-c1ccc(C(=N)N)cc1)n2C [3(123), 2-(4-amidino-phenyl)-5-[(2-methoxycarbonyl-ethyl)-aminocarbonyl]-1-methyl-6-methylamino-benzimidazole-hydrochloride-hydrogen acetate] | – | 12000 nM | 25000 nM
27 | COC(=O)CCNC(=O)c1ccc2c(c1)nc(-c1ccc(C(=N)N)cc1)n2CCC(c1ccccc1)c1ccccc1 [3(126), 2-(4-amidino-phenyl)-1-(3,3-diphenyl-propyl)-5-[(2-methoxycarbonyl-ethyl)-aminocarbonyl]-benzimidazole] | 2200 nM | 9900 nM | –
28 | COC(=O)COc1ccc2[nH]c(COc3ccc(C(=N)N)cc3)nc2c1 [Example 3, 2-[(4-Amidino-phenyl)-oxymethyl]-5(6)-methoxycarbonyl-methoxy-benzimidazole-hydrochloride] | – | 1200 nM | –
